Patent publication US12559863B2, “Macrocyclic modulators of disease associated protein misfolding and aggregation” (RESQ BIOTECH, priority 2017, dated 2026)
Where a SMILES comes first, the peptide text is derived from it.

Assays:
[1] = system: C. elegans strain CL4176 (human Aβ42); assay: Dot blot analysis of total and oligomeric Aβ in C. elegans CL4176; type: in vivo, Caenorhabditis elegans; conditions: for accumulation level of total Aβ, CL4176: antibody 6E10; for accumulation level of oligomeric Aβ, CL4176: antibody AB9234
Procedure: CL4176 animals were allowed to lay eggs for 3 h on NGM plates containing either synthetic peptides or 0.26% DMSO. Paralysis was induced upon temperature up-shift and the progeny were exposed to either pure peptides or 0.26% DMSO until 50% of the control population was paralyzed. The animals were then collected and boiled in non-reducing Laemmli buffer. For dot blot analysis, 1-5 μg of protein lysates were spotted onto 0.2 μm nitrocellulose membranes (Bio-Rad, USA) after soaking into TBS pre-heated at 80° C. Immunoblotting was performed using the anti-Aβ antibody 6E10 (recognizes total Aβ) and the anti-amyloid protein, oligomer-specific antibody AB9234 (Merck Millipore, Germany). Actin was used as a loading control. Blots were developed with chemiluminescence by using the Clarity™ Western ECL substrate (Bio-Rad, USA). Quantification of the ratio of each detected protein to actin using the anti-actin antibody sc-1615 (Santa Cruz, Germany), and normalization to control appears next to each representative blot.

Aβ40 [2] = target: T1, Aβ40 (Homo sapiens, UniProt P05067); assay: Circular dichroism of Aβ40 with cyclic peptide; type: biochemical; conditions: 50 μM Aβ, 33° C., 30 d
T1 construct: The main product of APP cleavage consists of 40 amino acids (Aβ40); purchased Eurogentec, Belgium; host or cells: chemical synthesis
Procedure: Synthetic Aβ40 and Aβ42 peptides were gently dissolved without vortexing in doubly deionized water to a final concentration of 100 μM. These solutions were then diluted by PBS addition (10 mM, pH 7.33) to achieve a final Aβ concentration of 50 μM.
Appropriate amounts of synthetic cyclic peptides were added to either 40 μM SOD1(A4V) or 50 μM Aβ solutions at the desired cyclic peptide:target protein molar ratio. SOD1(A4V) structural changes were monitored for 90 d at 25° C., under quiescent conditions. Aβ structural changes were monitored for 30 d at 33° C. under quiescent conditions. CD spectra in the range 190-260 nm were recorded on a JASCO J-715 spectropolarimeter (Jasco Co., Japan) using quartz cuvettes with 1 mm path length. Each reported spectrum is the average of three scans at a rate of 100 nm·min^−1 and a resolution of 0.5 nm.

[3] = system: C. elegans strain CL4176 (human Aβ42, heat-inducible); assay: Paralysis assay in C. elegans CL4176; type: in vivo, Caenorhabditis elegans; conditions: synthetic AβC5-34 10 μM, AβC5-116 5 μM; temperature up-shift
Procedure: We followed standard procedures for C. elegans strains maintenance at 16° C. The following strains were used: CL2179: dvIs179 [myo-3p::GFP::3′UTR(long)+rol-6(su1006)] (available on the world wide web at: cgc.cbs.umn.edu/strain.php?id=26134); CL2331: dvIs37 [myo-3p::GFP::Aβ(3-42)+rol-6(su1006)] (available on the world wide web at: cgc.cbs.umn.edu/strain.php?id=26135); CL4176: smg-1(cc546) I; dvIs27 [myo-3::Aβ(1-42)-let 3′UTR(pAF29); pRF4 (rol-6(su1006)] (available on the world wide web at: cgc.cbs.umn.edu/strain.php?id=7663).
For treatments with synthetic cyclic peptides, nematodes were exposed to the indicated AβC5-34 and AβC5-116 concentrations per NGM plate. Stock solutions of the two chemically synthesized pure peptides were obtained after dissolution in DMSO and stored at −20° C. The appropriate amount of compound or DMSO (control cultures) was added onto an E. coli OP50 bacterial lawn. […] Treatment and control plates were handled, scored and assayed in parallel.
Synchronized CL4176 animals (150-300 animals per condition) were transferred to NGM plates containing synthetic AβC5-34, AβC5-116 or 0.26% DMSO at 16° C. for 48 h before transgene induction via temperature up-shift to 25° C. […] Treatment and control plates were handled, scored and assayed in parallel. […] Nematodes were scored as paralyzed upon failure to move their half end-body upon prodding. […]

Aβ40 [4] = target: T1, Aβ40; assay: Thioflavin T dye-binding assay of Aβ40; type: biochemical; conditions: 30-d aged CD solutions
Procedure: For Aβ ThT staining, 100 μL of the 30-d aged 50 μM CD solutions were diluted in PBS (10 mM, pH 7.33) to form a 25 μM Aβ solution with 200 μL final volume. 2.5 μL from a stock solution of ThT (Sigma-Aldrich, USA) in PBS (10 mM, pH 7.33) was added to the prepared Aβ solutions to achieve a final ThT concentration of 5 μM. The mixture was agitated adequately by pipetting and immediately thereafter, fluorescence was monitored with excitation at 440 nm (EM slit=2.5 nm, PMT Voltage 700 V, response 0.4 s) using a HITACHI F-2500 (Japan) spectrofluorometer.

| Molecule | accumulation level of total Aβ, CL4176 [1] | accumulation level of oligomeric Aβ, CL4176 [1] | effect on aggregation process of Aβ40 (CD) (Aβ40 [2]) | appearance of paralysis phenotype, CL4176 [3] | Aβ40 fibril formation (ThT) (Aβ40 [4]) |
| --- | --- | --- | --- | --- | --- |
| C[C@@H]1NC(=O)[C@H](CO)NC(=O)[C@H]([C@@H](C)O)NC(=O)[C@@H]2CCCN2C(=O)[C@H](CO)NC1=O [AβC5-34, cyclo-SASPT] (cyclo(ASPTS)) | significant reduction of both Aβ species | significant reduction of both Aβ species | did not have the same effect and resulted in the appearance of a low-intensity negative peak | significant delay | almost unaffected |
| cyclo-TWSVW (cyclic) [SOD1C5-4] | – | – | did not have any effect | – | did not have any effect |
| C[C@@H]1NC(=O)[C@H]([C@@H](C)O)NC(=O)[C@H](CCCNC(=N)N)NC(=O)[C@H](CC(=O)O)NC(=O)[C@H](Cc2ccccc2)NC1=O [AβC5-116, cyclo-TAFDR] (cyclo(AFDRT)) | significant reduction of both Aβ species | significant reduction of both Aβ species | strongly inhibit the aggregation of Aβ40 | significant delay | reduced |
